Measured values published in patent publication US20050119238A1, “Compositions and methods for preventing sporadic neoplasia in colon” (priority 2002, published 2005).

Assays:
[1] = Serious medical events in the randomized placebo-controlled aspirin study; settings: for Serious Bleeding, Gastrointestinal / Serious Bleeding, Genitourinary: bleeding leading to hospitalization or surgical intervention
Method: A multi-center, randomized, double-blind, placebo-controlled study was performed that examined the effects of aspirin alone as well as folate treatment combined with aspirin on the occurrence of large bowel adenomas. The study has a 3-by-2 factorial design, investigating aspirin (placebo, 81 mg/day, or 325 mg/day) and folic acid (placebo or 1 mg/day). Patients were recruited at nine centers in North America. Eligible subjects had at least one of the following: (1) one or more histologically confirmed large-bowel adenomas removed within 3 months prior to recruitment, (2) one or more histologically confirmed large-bowel adenomas removed within 16 months before recruitment and a lifetime history of 2 or more confirmed large-bowel adenomas, or (3) a histologically confirmed large-bowel adenoma at least 1 cm in diameter removed within 16 months before recruitment. […] Eligible subjects were between 21 and 80 years old, in good health, and with anticipated colonoscopic follow-up three years after the qualifying examination. Exclusion criteria included a history of a familial colorectal cancer syndrome, invasive large-bowel cancer, malabsorption syndromes, any condition potentially worsened by supplemental aspirin or folic acid, or any condition commonly treated with aspirin, non-steroidal anti-inflammatory drugs (NSAIDs), or folate (e.g., recurrent arthritis, atherosclerotic vascular disease, folic acid deficiency).
Study coordinators at each center maintained contact with the subjects on a regular basis; interval questionnaires regarding possible side effects and medical events were completed every four months by each subject.
Subjects were regularly counseled regarding avoidance of aspirin and other NSAIDs. Lists of products containing aspirin, ibuprofen, or naproxen were provided, and acetaminophen was distributed for treatment of minor febrile illnesses and pain. Every four months, subjects received questionnaires regarding adherence to study treatment; use of medications, over-the-counter drugs and nutritional supplements; and occurrence of symptoms, illnesses, and hospitalizations.
The statistical analysis compared the aspirin treatment groups irrespective of folic acid treatment. Subjects who underwent a follow-up endoscopy at least one year following randomization were included in the analyses. The predefined primary statistical analysis was a 2 degree-of-freedom chi-squared test for a contingency table comparing treatment groups regarding risk of one or more new adenomas. Crude risk ratios and 95 percent confidence intervals were used to compare treatment groups to placebo. Adjusted risk ratios were obtained from log-linear models with age, gender, clinical center, number of lifetime adenomas, and duration of follow-up as covariates. […] Possible modification of treatment effects by baseline characteristics was assessed using interaction terms in the log-linear model. Counts of other clinical endpoints were compared using Fisher's exact test. To compare the effect of aspirin on different types of polyps, a logistic regression model was used with generalized estimating equations (Liang and Zeger Biometrika 1986:13-22) to account for the clustering of multiple endpoints within patients. […] Two-sided P-values <0.05 were considered statistically significant.

[2] = system: patients with sporadic (non-hereditary) colorectal neoplasia (adenomas); experiment: Randomized, double-blind, placebo-controlled study of aspirin on occurrence of large bowel adenomas; assay type: in vivo, human
Excerpt: Patients were recruited at nine centers in North America.
By protocol, subjects were to have a complete surveillance colonoscopy 34-40 months after the qualifying examination. At each colonoscopy, the endoscopist recorded the estimated size and location of all polyps and mucosal lesions suspicious for neoplasia as per usual clinical practice. Each lesion was removed and examined histologically at the clinical center and by the study pathologist. Polyps were classified as neoplastic (adenomatous) or non-neoplastic (e.g., hyperplastic) by the study pathologist.
The primary study outcome was the proportion of subjects with one or more colorectal adenomas detected during the period from one year after randomization through the anticipated surveillance follow-up. If a surveillance colonoscopy was not performed during the protocol time window, the last examination at least one year after randomization was taken as the follow-up exam. Pre-specified secondary outcomes were the numbers of large-bowel adenomas and “advanced lesions”: tubulovillous adenomas (25 to 75 percent villous features), villous adenomas (>75 percent villous), large adenomas ([…]), severe dysplasia, or invasive cancer. Separate analyses were also conducted for lesions in the left colorectum (descending colon, sigmoid colon, and rectum) and right colorectum (the remainder of the bowel).

Question: With CC(=O)Oc1ccccc1C(=O)O [aspirin, acetylsalicylic acid] as the compound, how does the “Coronary Revascularization” value ([1]; 81 mg aspirin (N = 377)) read?
Answer: The value was 3 no of subjects.

Question: And the Deaths ([1]; 81 mg aspirin (N = 377))?
Answer: The Deaths was 3 no of subjects.

Question: And the “Died (percent)” value ([1]; 81 mg aspirin (N = 377))?
Answer: The value was 0.8%.

Question: And the Hospitalization ([1]; 81 mg aspirin (N = 377))?
Answer: The Hospitalization was 61 no of subjects.

Question: What about the “Myocardial Infarction” value ([1]; 81 mg aspirin (N = 377)) of the same compound?
Answer: The value was 2 no of subjects.

Question: What about the “Non-Colorectal Cancer” value ([1]; 81 mg aspirin (N = 377)) of the same compound?
Answer: Its value is 14 no of subjects.

Question: What about the Stroke ([1]; 81 mg aspirin (N = 377)) of the same compound?
Answer: The Stroke was 2 no of subjects.

Question: What about the “Serious Bleeding, Gastrointestinal” value ([1]; 81 mg aspirin (N = 377)) of the same compound?
Answer: Its value is 2 no of subjects.

Question: And the “Serious Bleeding, Genitourinary” value ([1]; 81 mg aspirin (N = 377))?
Answer: The value was 6 no of subjects.

Question: What about the “Coronary Revascularization” value ([1]; 325 mg aspirin (N = 372)) of the same compound?
Answer: Its value is 5 no of subjects.

Question: And the Deaths ([1]; 325 mg aspirin (N = 372))?
Answer: The Deaths was 4 no of subjects.

Question: And the “Died (percent)” value ([1]; 325 mg aspirin (N = 372))?
Answer: Its value is 1.1%.

Question: What about the Hospitalization ([1]; 325 mg aspirin (N = 372)) of the same compound?
Answer: The Hospitalization was 57 no of subjects.

Question: What about the “Myocardial Infarction” value ([1]; 325 mg aspirin (N = 372)) of the same compound?
Answer: Its value is 4 no of subjects.

Question: What about the “Non-Colorectal Cancer” value ([1]; 325 mg aspirin (N = 372)) of the same compound?
Answer: The value was 9 no of subjects.

Question: And the Stroke ([1]; 325 mg aspirin (N = 372))?
Answer: Its Stroke is 5 no of subjects.

Question: What about the “Serious Bleeding, Gastrointestinal” value ([1]; 325 mg aspirin (N = 372)) of the same compound?
Answer: The value was 4 no of subjects.

Question: What about the “Serious Bleeding, Genitourinary” value ([1]; 325 mg aspirin (N = 372)) of the same compound?
Answer: Its value is 2 no of subjects.

Question: And the “Hospitalization, cancer and myocardial infarction, occurrence” value ([1]; aspirin groups versus placebo, differences compatible with chance)?
Answer: The value was “somewhat more frequently”.

Question: What about the “patients diagnosed with a stroke (all non-fatal)” value ([1]; both aspirin groups together, none on placebo) of the same compound?
Answer: The value was “Seven”.

Question: What about the “Relative Crude Risk (95% CI)” value ([2]; Any adenoma, both aspirin groups combined versus placebo) of the same compound?
Answer: Its value is 0.88 (0.77-1.02).

Question: And the incidence of adenomas ([2]; patients randomized to the aspirin groups)?
Answer: Its incidence of adenomas is “significantly lower”.
